Experimental findings from patent US9375000B2, “Pesticidal arylpyrrolidines” (Bayer Intellectual Property GmbH, priority 2011, dated 2016) are described below.

Common to all, as to format: in vivo
Series [1] has as its system Two-Spotted Spider Mite (Tetranychus urticae). Kind of series: Two-spotted spider mite (Tetranychus urticae) spray test on kidney bean. As to conditions: after 7 days. In a few lines:
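Kidney bean plants at the two-leaf stage carried 50-100 adult mites and were sprayed one day later with compound in DMF/polyoxyethylene alkyl phenyl ether diluted in water. Ammonium salt and penetration enhancer at 1000 ppm were added if needed. Acaricidal activity (% mites killed) was scored after 7 days in a greenhouse.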

Series [2] relates to Cucurbit Leaf Beetle (Aulacophora femoralis). As to the kind of experiment: Cucurbit leaf beetle (Aulacophora femoralis) cucumber leaf dip test. The conditions noted are these: after 7 days; for pest or weed control at 20 ppm / pest or weed control at 4 ppm: Aulacophora, foliar, 168 h, read-out: insecticidal activity. In a few lines: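 Cucumber leaves dipped in compound formulated with DMF and polyoxyethylene alkyl phenyl ether, diluted in water, with ammonium salt or ammonium salt plus penetration enhancer at 1000 ppm added if necessary; dried leaves placed on sterilized soil with five second-instar larvae. Kept at 25° C; larval mortality counted after 7 days.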

Series [3] relates to Larvae of Spodoptera litura. Kind of series: Larvae of Spodoptera litura, method using artificial feeds. The conditions noted are these: artificial feed, after 7 days; for pest or weed control at 20 ppm / pest or weed control at 4 ppm: Spodoptera litura, 168 h, read-out: insecticidal activity (pesticidal ratio). In a few lines: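 Compound formulated in dimethylformamide with polyoxyethylene alkyl phenyl ether emulsifier, water-diluted and poured onto artificial diet. Five 3rd-instar Spodoptera litura larvae per cup, held at 25° C and 50-60% humidity. Mortality after 7 days expressed as pesticidal ratio.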

The test system of series [4] is green peach aphids (Myzus persicae). As to the kind of experiment: Myzus persicae spray test (MYZUPE). The conditions noted are these: active compound concentration 20 ppm; after 6 days. How it is done:
Unless not mentioned otherwise, the test solutions were prepared as follows:
Solvent: 3 parts by weight Dimethylformamide
Emulsifier: 1 part by weight Polyoxyethylene alkyl phenyl ether
In order to make an appropriate formulation of an active compound, 1 part by weight of the active compound is mixed with the above mentioned amount of solvent and emulsifier and the mixture is diluted with water to a prescribed concentration. Ammonium salt or ammonium salt and penetration enhancer in a dosage of 1000 ppm are added to the desired concentration if necessary.
1 day before treatment, green peach aphids (Myzus persicae) are inoculated onto the testing plants, about 50 heads per leaf, 100 for 1 pot. A paper label is placed on each pot. Solutions are sprayed directly onto both insects and plants. After drying, the pots are placed in the greenhouse at 20° C.-25° C. After 6 days mortality in % is determined. An insecticidal activity of 100% means that all aphids were killed, whereas an insecticidal activity of 0% means that no aphid was killed.

The test system of series [5] is Nymphs of the tick Amblyomma hebraeum. Kind of series: Amblyomma hebraeum test (AMBYHE), nymph immersion. The conditions noted are these: application rate 100 ppm; immersion one minute; 42 days. How it is done:
Solvent: Dimethyl sulfoxide
To produce a suitable preparation of active compound, 10 mg of active compound are dissolved in 0.5 ml solvent, and the concentrate is diluted with water to the desired concentration. Nymphs of the tick Amblyomma hebraeum are placed in perforated plastic beakers and immersed in aqueous compound solution for one minute. Ticks are transferred to a filter paper in a petridish and incubated in a climate chamber for 42 days. After the specified period of time, mortality in % is determined. 100% means that all the ticks have been killed; 0% means that none of the ticks have been killed.

Series [6] relates to Ctenocephalides felis. Kind of series: Test against Ctenocephalides felis (CTECFE), blood feeding. As to conditions: for activity (mortality): application rate 100 ppm in cattle blood, after 2 days; for mortality at 100 ppm: Ctenocephalides felis, in Bos taurus, 48 h, read-out: activity (mortality). How it is done:
(§1) Solvent: dimethyl sulfoxide
To produce a suitable preparation of active compound, 10 mg of active compound are dissolved in 0.5 ml solvent, and the concentrate is diluted with cattle blood to the desired concentration. Approximately 20 adult unfed (Ctenocepahlides felis) are placed in flea chambers. The blood chamber, sealed with parafilm on the bottom, are filled with cattle blood supplied with compound solution and placed on top of the flea chamber, so that the fleas are able to suck the blood. The blood chamber is heated to 37° C. whereas the flea chamber is kept at room temperature.
After 2 days mortality in % is determined. 100% means that all the fleas have been killed; 0% means that none of the fleas have been killed.

Series [7] relates to Tobacco Cutworm (Spodoptera litura) Larvae. Kind of series: Tobacco cutworm (Spodoptera litura) larvae, sweet potato leaf dip test. As to conditions: dead larvae after 7 days. The method, boiled down: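 Sweet potato leaves were dipped in DMF/emulsifier test solution at the set concentration and air-dried. Ten third-instar S. litura larvae were placed per dish at 25 °C, with fresh leaves added on days 2 and 4. Mortality was counted on day 7, given as % insecticidal activity averaged over two dishes.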

The test system of series [8] is Lucilia cuprina 1st instar larvae. As to the kind of experiment: Test against Lucilia cuprina larvae. As to conditions: 48 h, read-out: activity (larval mortality). How it is done: as §1
10 mg active compound are dissolve in 0.5 mL dimethyl sulfoxide. Serial dilutions are made to obtain the desired rates.
Approximately 20 Lucilia cuprina 1st instar larvae are transferred into a test tube containing 1 cm^3 of minced horse meat and 0.5 ml aqueous dilution of test compound. After 48 hrs percentage of larval mortality are recorded. 100% efficacy=all larvae are killed, […].

For series [9], the system named is Musca domestica. Kind of series: Test against Musca domestica. The conditions noted are these: Musca domestica, 48 h, read-out: activity (mortality). The method, then: as §1
To produce a suitable preparation of active compound, 10 mg of active compound are dissolved in 0.5 ml solvent, and the concentrate is diluted with water to the desired concentration. Prior to the assay, a piece of kitchen sponge is soaked with a mixture of sugar and compound solution and placed into a container. 10 adults (Musca domestica) are placed into the container and closed with a perforated lid. After 2 days mortality in % is determined. 100% means that all the flies have been killed; 0% means that none of the flies have been killed.

Series [10] deals with adult engorged female Boophilus microplus ticks. As to the kind of experiment: Test against Boophilus microplus (dip). As to conditions: Rhipicephalus microplus, 168 h, read-out: activity (mortality). The method, then:
as §1
To produce a suitable preparation of active compound, 10 mg of active compound are dissolved in 0.5 ml solvent, and the concentrate is diluted with water to the desired concentration. Eight to ten adult engorged female Boophilus microplus ticks are placed in perforated plastic beakers and immersed in aqueous compound solution for one minute. Ticks are transferred to a filter paper in a plastic tray. Egg deposition of fertile eggs is monitored after. After 7 days mortality in % is determined. 100% means that all the ticks have been killed; 0% means that none of the ticks have been killed.

For series [11], the system named is Thrips palmi. As to the kind of experiment: Thrips palmi spray test (THRIPL). The conditions noted are these: active compound concentration 20 ppm; after 6 days. In a few lines:
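Cucumber seedlings sprayed with compound formulated in DMF/polyoxyethylene alkyl phenyl ether and diluted in water, ammonium salt ± penetration enhancer at 1000 ppm added if needed. About 100 T. palmi eggs attached, plants held caged at 100% humidity, 23 °C. Percent activity scored from feeding damage after 6 days, 100 = no damage, 0 = as untreated.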

[12] abbreviates: active compound concentration 4 ppm.
Where [13] appears, read: active compound concentration 20 ppm.
Setting [14] is: Tetranychus urticae, 168 h, active compound concentration 20 ppm, read-out: acaricidal activity.

Take `O=C(NCc1ccc(N2CCC(c3cc(F)cc(C(F)(F)F)c3)(C(F)(F)F)C2O)nc1C(F)(F)F)C1CC1` (mixture of isomers) [A3-247]: the acaricidal activity in series [1] (setting [12]) and in series [1] (setting [13]) was 100% in each case. Moreover, the insecticidal activity in series [2] (setting [12]) and in series [2] (setting [13]) was 100% in each case. For the same compound, the “insecticidal activity (pesticidal ratio)” value in series [3] (setting [12]) and in series [3] (setting [13]) was 100% throughout. Further, the “insecticidal activity (mortality)” value in series [4] is reported as 100%. For the same compound, the “activity (mortality)” value in [5] was 100%; in [6], 95%.

As usually defined, the mortality is the share of the test organisms that died. In turn, `O=C(NCc1ccc(N2CCC(c3cc(C(F)(F)F)cc(C(F)(F)F)c3)(C(F)(F)F)C2O)cc1Cl)C1CC1` (stereo not drawn) [A1-27, N-(4-{3-[3,5-bis(trifluoromethyl)phenyl]-2-hydroxy-3-(trifluoromethyl)pyrrolidin-1-yl}-2-chlorobenzyl)cyclopropanecarboxamide] displayed an insecticidal activity in series [7] (setting [13]) of 100%. Besides, the pest or weed control at 20 ppm in series [1] (setting [14]), in series [2] (setting [13]) and in [3] (setting [13]) was 100% in each case. Also, the mortality at 100 ppm in [6], in [8] and in series [9] was 100% in each case.

Regarding `CCC(=O)NCc1ccc(N2CCC(c3cc(Cl)cc(Cl)c3)(C(F)(F)F)C2O)cc1C(F)(F)F` (stereo not drawn) [A1-35, N-{4-[3-(3,5-dichlorophenyl)-2-hydroxy-3-(trifluoromethyl)pyrrolidin-1-yl]-2-(trifluoromethyl)benzyl}propanamide], the pest or weed control at 20 ppm in series [1] (setting [14]), in [2] (setting [13]) and in series [3] (setting [13]) was 100% throughout. For the same compound, the mortality at 20 ppm in series [10] is 100%. Moreover, the mortality at 100 ppm in series [6] and in series [8] was 100% in each case.

As for `O=C(NCc1ccc(N2CCC(c3cc(Cl)cc(Cl)c3F)(C(F)(F)F)C2O)cc1C(F)(F)F)C1CC1` (stereo not drawn) [A1-409, N-{4-[3-(3,5-dichloro-2-fluorophenyl)-2-hydroxy-3-(trifluoromethyl)pyrrolidin-1-yl]-2-(trifluoromethyl)benzyl}cyclopropanecarboxamide], the pest or weed control at 4 ppm in series [1] (Tetranychus urticae, 168 h, active compound concentration 4 ppm, read-out: acaricidal activity) turned out to be 100%; in series [2] (setting [12]) it was 100%; in series [3] (setting [12]) it was 100%. The “insecticidal activity (by feeding damage degree)” value in [11] is 98%. The mortality at 100 ppm is 90% in [10], 100% in [6], 100% in [8] and 100% in [9].

As to `CCC(=O)NCc1ccc(N2CCC(c3cc(Cl)c(Cl)c(Cl)c3)(C(F)(F)F)C2O)nc1C(F)(F)F` (stereo not drawn) [A3-13, N-({6-[2-hydroxy-3-(3,4,5-trichlorophenyl)-3-(trifluoromethyl)-pyrrolidin-1-yl]-2-(trifluoromethyl)pyridin-3-yl}methyl)propanamide], the insecticidal activity in [7] (setting [13]) was determined as 100%. Moreover, the pest or weed control at 20 ppm in series [1] (setting [14]), in series [2] (setting [13]) and in series [3] (setting [13]) was 100% throughout. The mortality at 20 ppm in series [10] was found to be 100%. The mortality at 100 ppm in [6], in [8] and in series [9] was 100% throughout.

For `O=C(NCc1cnc(N2CCC(c3cc(Cl)c(F)c(Cl)c3F)(C(F)(F)F)C2O)nc1C(F)(F)F)C1CC1` (stereo not drawn) [A4-115], the insecticidal activity in series [7] (setting [12]) and in series [2] (setting [13]) was 100% throughout. Also, in series [1] (setting [12]), the acaricidal activity is 100%. Moreover, the “insecticidal activity (mortality)” value in series [4] was 100%. Also, in [11], the “insecticidal activity (by feeding damage degree)” value was 98%. Besides, the “activity (mortality)” value in series [5] was determined as 100%; in [6], 90%.

Consider `O=C(NCc1cnc(N2CCC(c3cc(C(F)(F)F)cc(C(F)(F)F)c3)(C(F)(F)F)C2O)cc1C(F)(F)F)C1CC1` (stereo not drawn) [A5-27, N-{[6-{3-[3,5-bis(trifluoromethyl)phenyl]-2-hydroxy-3-(trifluoromethyl)pyrrolidin-1-yl}-4-(trifluoromethyl)pyridin-3-yl]methyl}cyclopropanecarboxamide], for which the pest or weed control at 20 ppm in [1] (setting [14]), in [2] (setting [13]) and in series [3] (setting [13]) was 100% throughout. Also, the pest or weed control at 4 ppm in series [2] (setting [12]) and in series [3] (setting [12]) was 100% each time. Besides, in series [11], the “insecticidal activity (by feeding damage degree)” value came to 90%. Also, the mortality at 100 ppm in series [10], in series [6], in series [8] and in series [9] was 100% each time.

Consider `O=C(NCc1cnc(N2CCC(c3cc(Cl)c(F)c(Cl)c3F)(C(F)(F)F)C2O)cc1C(F)(F)F)C1CC1` (stereo not drawn) [A5-82], for which the insecticidal activity in series [7] (setting [12]) and in series [2] (setting [13]) was 100% each time. In series [1] (setting [12]), this compound had an acaricidal activity of 100%. For the same compound, the “insecticidal activity (by feeding damage degree)” value in [11] worked out at 90%. The “activity (mortality)” value is recorded as 100% in series [5] and 95% in series [6].

For `CCC(=O)NCc1ccc(N2CC(c3cc(Cl)c(Cl)c(Cl)c3)(C(F)(F)F)CC2=O)cc1C(F)(F)F` (stereo not drawn) [C1-46, N-{4-[2-oxo-4-(3,4,5-trichlorophenyl)-4-(trifluoromethyl)pyrrolidin-1-yl]-2-(trifluoromethyl)benzyl}propanamide], the insecticidal activity in series [7] (setting [13]) was found to be 100%. Besides, the pest or weed control at 20 ppm in [1] (setting [14]) and in [3] (setting [13]) was 100% throughout. For the same compound, the mortality at 100 ppm in series [6] and in series [8] was 100% throughout.
